Laboratory results reported in ChEMBL document CHEMBL2216752, “Carnitine palmitoyltransferase (CPT) modulators: a medicinal chemistry perspective on 35 years of research” (J Med Chem, 2011).

Legend:
Rattus norvegicus [1] = assay: Reduction in glucose carbon recycling in Wistar rat at 60 mg/kg, iv over 5.5 hrs; type: functional; parameters: scale not given: the % may be the effect or the level left
Rattus norvegicus [2] = assay: Reduction in blood 3-OH-butyrate in Wistar rat at 60 mg/kg, iv over 5.5 hrs (reference value: 1 mM); type: functional
Sus scrofa [3] = assay: Reduction in plasma glucose in 48 hrs fasted pig at 20 mg, iv measured 5 hrs post dose; type: functional; parameters: scale not given: the % may be the effect or the level left
Rattus norvegicus [4] = assay: Reduction in whole body glucose utilization in Wistar rat at 60 mg/kg, iv over 5.5 hrs; type: functional; parameters: scale not given: the % may be the effect or the level left
Rattus norvegicus [5] = assay: Reduction in plasma glucose in Wistar rat at 60 mg/kg, iv over 5.5 hrs; type: functional; parameters: scale not given: the % may be the effect or the level left
Rattus norvegicus [6] = assay: Inhibition of CPT1 in fasted Sprague-Dawley rat liver mitochondria at 0.6 to 60 umol/kg, po measured 4 hrs post dose; type: functional
[7] = Inhibition of rat FAO
Homo sapiens [8] = organism: Homo sapiens; assay: Inhibition of carnitine palmitoyltransferase in human fibroblasts assessed as [14]CO2 production from [1-14C]pyruvate at 5 to 50 uM by radiometric assay; parameters: scale not given: the % may be the effect or the level left
Mus musculus [9] = assay: Reduction in glucose AUC in db/db mouse at 19 umol/kg/day, po for 4 days administering last dose 1 hr before glucose load by OGTT test; type: functional; parameters: scale not given: the % may be the effect or the level left
Rattus norvegicus [10] = assay: Reduction in blood glucose in adrenalectomized rat at 25 to 150 umol/kg, po; type: functional; parameters: scale not given: the % may be the effect or the level left
Homo sapiens [11] = organism: Homo sapiens; assay: Inhibition of carnitine palmitoyltransferase in human fibroblasts assessed as [14]CO2 production at 5 to 50 uM from [U-14C]palmitate by radiometric assay; parameters: scale not given: the % may be the effect or the level left
Mus musculus [12] = assay: Reduction in FBG in db/db mouse at 19 umol/kg/day, po for 4 days measured 1 hr post dose after 16 hrs fasting; type: functional; parameters: scale not given: the % may be the effect or the level left
Rattus norvegicus [13] = assay: Increase in coronary flow in perfused rat heart at 5 mg/kg, sc administered as single dose administered 120 mins before start of perfusion; type: functional; details: route subcutaneous
Rattus norvegicus [14] = organism: Rattus norvegicus; assay: Reduction in oxidation rate in rat liver mitochondria treated at 0.05% or 0.2% dose through food-admix for 12 weeks; type: functional, organism-based; parameters: scale not given: the % may be the effect or the level left
Rattus norvegicus [15] = organism: Rattus norvegicus; assay: Reduction in oxidation rate in rat liver mitochondria treated at 0.05% or 0.2% dose through food-admix for 12 weeks by polarographic oxygen uptake method; type: functional, organism-based; parameters: scale not given: the % may be the effect or the level left
Rattus norvegicus [16] = assay: Reduction in blood glucose in po dosed Sprague-Dawley rat; type: functional
[17] = Inhibition of human FAO
Rattus norvegicus [18] = assay: Reduction in blood KB in Sprague-Dawley rat at 0.6 to 60 umol/kg, po; type: functional; parameters: scale not given: the % may be the effect or the level left
[19] = Toxicity in po dosed Sprague-Dawley rat assessed as hypoglycemic coma; type: organism-based; details: in vivo
Rattus norvegicus [20] = assay: Reduction in blood KB level in fasted Sprague-Dawley rat at 8 to 300 umol/kg, po; type: functional; parameters: scale not given: the % may be the effect or the level left
Rattus norvegicus [21] = assay: Reduction in blood glucose in fasted Sprague-Dawley rat at 8 to 300 umol/kg, po measured 2 hrs post dose; type: functional; parameters: scale not given: the % may be the effect or the level left
[22] = Inhibition of carnitine palmitoyltransferase in hepatocytes from fasted rat assessed as oxidation of [U-14C]palmitate and production of acetoacetate and BHB; type: cell-based; details: Hepatocyte
Rattus norvegicus [23] = assay: Reduction in blood glucose in fasted Sprague-Dawley rat at 0.6 to 60 umol/kg, po; type: functional; parameters: scale not given: the % may be the effect or the level left
Sus scrofa [24] = assay: Reduction in blood glucose in STZ-treated diabetic pig at 10 to 40 umol/kg, iv measured 6 hrs post dose; type: functional; parameters: scale not given: the % may be the effect or the level left
Rattus norvegicus [25] = assay: Increase in plasma TG level in fasted Sprague-Dawley rat at 8 to 300 umol/kg, po measured 2 to 4 hrs post dose; type: functional
Rattus norvegicus [26] = assay: Reduction in blood glucose in po dosed fasted Sprague-Dawley rat; type: functional
Rattus norvegicus [27] = assay: Inhibition of CPT1 in Sprague-Dawley rat liver mitochondria at 0.6 to 60 umol/kg, po measured 4 hrs post dose; type: functional
Rattus norvegicus [28] = assay: Increase in plasma FFAs level in fasted Sprague-Dawley rat at 8 to 300 umol/kg, po measured 2 to 4 hrs post dose; type: functional
Rattus norvegicus [29] = assay: Reduction in blood glucose in Sprague-Dawley rat at 600 umol/kg, po; type: functional; parameters: scale not given: the % may be the effect or the level left
Homo sapiens [30] = organism: Homo sapiens; assay: Inhibition of carnitine palmitoyltransferase in human fibroblasts assessed as [14]CO2 production from [U-14C]glucose at 5 to 50 uM by radiometric assay; parameters: scale not given: the % may be the effect or the level left
Cavia porcellus = assay: Reduction in blood glucose in SPF-white inbred guinea pig at 7 to 56 umol/kg, po; type: functional
Rattus norvegicus [31] = assay: Reduction in blood KB in fasted Sprague-Dawley rat at 0.6 to 60 umol/kg, po; type: functional; parameters: scale not given: the % may be the effect or the level left
Rattus norvegicus [32] = assay: Reduction in total cholesterol level in fasted Sprague-Dawley rat at 8 to 300 umol/kg, po measured 24 hrs post dose; type: functional; parameters: scale not given: the % may be the effect or the level left

In the case of O=C(O)C1(CCCCCCOc2ccc(Cl)cc2)CO1 (racemic), the Activity (Rattus norvegicus [1]) is reported as 30%, the Activity (Rattus norvegicus [2]) is reported as 0.03 mM and the Activity (Sus scrofa [3]) is reported as 50%. The Activity (Rattus norvegicus [4]) was 14% and the Activity (Rattus norvegicus [5]) was 25%.

For O=C([O-])C1(CCCCCc2ccc(Cl)cc2)CO1.[Na+] (racemic), the “inhibition (INH)” value (Rattus norvegicus [6]) was “<=98%”, the IC50 [7] was 95.9 µM and the Activity (Homo sapiens [8]) was 24%. It also gave an Activity (Mus musculus [9]) of 50%, an Activity (Rattus norvegicus [10]) of 34% and an Activity (Homo sapiens [11]) of 90%. For the same compound, the Activity (Mus musculus [12]) was 60%, the Activity (Rattus norvegicus [13]) was 50% and the Activity (Rattus norvegicus [14]) was < 80%. For the same compound, the Activity (Rattus norvegicus [15]) was < 50%, the ED50 (Rattus norvegicus [16]) was 9 mg/kg and the IC50 [17] was 10.4 µM. The Activity (Rattus norvegicus [18]) was “<=40%”, the LD50 [19] was 486 mg/kg and the Activity (Rattus norvegicus [20]) was “<=75%”. For the same compound, the Activity (Rattus norvegicus [21]) was “<=50%”, the IC50 [22] was 5 µM and the Activity (Rattus norvegicus [23]) was “<=25%”. For the same compound, the Activity (Sus scrofa [24]) was “<=35%”, the Activity (Rattus norvegicus [25]) was “<=290%” and the ED50 (Rattus norvegicus [26]) was 8.7 mg/kg. For the same compound, the “inhibition (INH)” value (Rattus norvegicus [27]) was 99%, the Activity (Rattus norvegicus [28]) was 300% and the Activity (Rattus norvegicus [29]) was 80%. For the same compound, the Activity (Homo sapiens [30]) was 250%, the ED50 (Cavia porcellus) was 8.7 mg/kg and the Activity (Rattus norvegicus [31]) was 78%. For the same compound, the Activity (Rattus norvegicus [32]) was 43%.
